{"source": "patent US5225404A", "about": "“Methods of treating colon tumors with tumor-inhibiting camptothecin compounds” (New York University, priority 1989, dated 1993)", "key": {"[1]": {"test": "overall toxicity in tumor-bearing mice (Example 7)", "format": "in vivo", "from_the_text": "Another important feature of the method provided by the present invention relates to the relatively low or no apparent overall toxicity of the camptothecin compounds administered in accordance herein. Overall toxicity can be judged using various criteria. For example, loss of body weight in a subject over 10% of the initially recorded body weight (i.e., before treatment) can be considered as one sign of toxicity. In addition, loss of overall mobility and activity and signs of diarrhea or cystitis in a subject can also be interpreted as evidence of toxicity. In one of the examples which follow, the overall toxicity of the camptothecin compounds was evaluated.\nThe overall toxicity of the colon tumor-inhibiting camptothecin compounds was next to be evaluated at various dosages. The overall toxicity of 9-amino-20(RS)-camptothecin, 10,11-methylenedioxy-camptothecin and the sodium salt of 10,11-methylenedioxy-camptothecin was evaluated in this example as follows: tumor fragments were implanted under the skin of 5-6 mice in each group beginning on day 0. The mice were injected with one of the compounds beginning on day 7 after visible signs that malignant growth of the implanted tumor had occurred. The injections of the compound were given at predetermined doses of 10 or 12.5 mg/kg of body weight per week for a total of 3-6 weeks. Injections were daily or given two times per week. The body weights of the controls (mice with tumors, injected with placebo) and that of the drug-treated mice were taken two times each week and recorded. Overall toxicity was determined in the following way: loss of body weight after treatment in a subject of more than 10% over the initial body weight of the subject recorded at the beginning of the experiment, was considered a sign of toxicity. The mice were also monitored for their ability to regain the lost body weight. Regaining entirely its lost body weight would therefore be a sign of low toxicity in a subject. In addition, mice were monitored for their overall mobility and activity as well as for signs of diarrhea or cystitis. Mobility/activity was judged on a sliding scale of 1 to 5. That is, a score of 1 indicated good mobility/activity and a score of 5 indicated poor mobility/activity. Diarrhea and cystitis were judged on a plus/minus basis."}, "[2]": {"system": "mouse leukemias", "conditions": "in vivo; cited from earlier work"}}, "data": [{"smiles": "CC[C@@]1(O)C(=O)OCc2c1cc1n(c2=O)Cc2cc3ccccc3nc2-1", "note": "[20(S)-camptothecin, reference compound]", "values": [{"measurement": "toxic deaths", "setting": "[1]; 50 mg/kg body weight", "value": "toxic deaths of all animals"}, {"measurement": "Overall Toxicity: body weight loss", "setting": "[1]; twice/week treatment, total dose 28 mg/kg", "value": "> 15", "unit": "%"}, {"measurement": "Overall Toxicity", "setting": "[1]; twice/week treatment, total dose 50 mg/kg", "value": "animal deaths"}, {"measurement": "Overall Toxicity", "setting": "[1]; twice/week treatment, total dose 70 mg/kg", "value": "animal deaths"}, {"measurement": "activity against mouse leukemias", "setting": "[2]", "value": "effective against mouse leukemias"}]}]}
